Drawing on patent US20120129831A1, “Substituted 3-(1,2,4-Oxadiazol-5-yl)-5-Phenylpiperidines” (BAYER PHARMA AKTIENGESELLSCHAFT, priority 2009, published 2012), this text covers IC50 for 3 compounds.

pIC50: −log10 of the molar value.

The term pIC50 denotes the negative decadic logarithm of the IC50, by convention in mol/L.

For this experiment, the target named is T1, human protease activated receptor 1 (PAR-1) (Homo sapiens, UniProt P25116).
T1 construct: the cell stably expresses the endogenous human PAR-1 receptor and the endogenous purinergic receptor P2Y2; endogenous in cells; host or cells: HEK293-derived recombinant cell line; only the mitochondrial aequorin is recombinant
T1 sequence (P25116 22-425): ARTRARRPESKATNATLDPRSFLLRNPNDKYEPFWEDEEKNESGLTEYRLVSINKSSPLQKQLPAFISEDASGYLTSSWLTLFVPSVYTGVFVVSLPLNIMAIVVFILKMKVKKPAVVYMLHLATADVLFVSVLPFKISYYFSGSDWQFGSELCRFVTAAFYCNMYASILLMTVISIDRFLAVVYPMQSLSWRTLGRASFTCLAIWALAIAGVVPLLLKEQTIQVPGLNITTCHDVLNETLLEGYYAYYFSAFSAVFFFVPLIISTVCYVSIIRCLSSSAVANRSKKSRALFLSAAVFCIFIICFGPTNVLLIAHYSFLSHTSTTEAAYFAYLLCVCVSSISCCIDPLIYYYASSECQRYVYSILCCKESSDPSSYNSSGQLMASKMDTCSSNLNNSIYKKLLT
The experiment is described as follows: Cellular functional in vitro test (aequorin luminescence, PAR-1 antagonism). The note with it: recombinant HEK293 aequorin cell line, endogenous human PAR-1; PAR-1 agonist at EC50; calcium luminescence. It counts as cell-based. An excerpt:
A recombinant cell line is used to identify antagonists of the human protease activated receptor 1 (PAR-1) and to quantify the activity of the substances described herein. The cell is originally derived from a human embryonal kidney cell (HEK293; ATCC: American Type Culture Collection, Manassas, Va. 20108, USA). The test cell line constitutively expresses a modified form of the calcium-sensitive photoprotein aequorin which, after reconstitution with the cofactor coelenterazine, emits light when the free calcium concentration in the inner mitochondrial compartment is increased (Rizzuto R, Simpson A W, Brini M, Pozzan T.; Nature 1992, 358, 325-327). Additionally, the cell stably expresses the endogenous human PAR-1 receptor and the endogenous purinergic receptor P2Y2. The resulting PAR-1 test cell responds to stimulation of the endogenous PAR-1 or P2Y2 receptor with an intracellular release of calcium ions, which can be quantified through the resulting aequorin luminescence with a suitable luminometer (Milligan G, Marshall F, Rees S, Trends in Pharmacological Sciences 1996, 17, 235-237). […]
Test procedure: The cells are plated out two days (48 h) before the test in culture medium (DMEM F12, supplemented with 10% FCS, 2 mM glutamine, 20 mM HEPES, 1.4 mM pyruvate, 0.1 mg/ml gentamycin, 0.15% Na bicarbonate; BioWhittaker Cat. #BE04-687Q; B-4800 Verviers, Belgium) in 384-well microtitre plates and kept in a cell incubator (96% atmospheric humidity, 5% v/v CO2, 37° C.). […] The test substances are then pipetted onto the microtitre plate, and 5 minutes after the transfer of the test substances into the wells of the microtitre plate the plate is transferred into the luminometer, a PAR-1 agonist concentration which corresponds to EC50 is added and the resulting light signal is immediately measured in the luminometer. To distinguish an antagonist substance action from a toxic action, the endogenous purinergic receptor is immediately subsequently activated with agonist (ATP, final concentration 10 μM) and the resulting light signal is measured.
As to `CCOCCc1noc(C2CC(c3ccc(CC)cc3)CN(C(=O)N3CCC(O)CC3)C2)n1` (single isomer, unassigned) [Example 15, {3-[3-(2-Ethoxyethyl)-1,2,4-oxadiazol-5-yl]-5-(4-ethylphenyl)piperidin-1-yl}(4-hydroxypiperidin-1-yl)methanone], the pIC50 is 8.07.

Regarding `O=C(N1CC(O)C1)N1CC(c2ccc(OC(F)(F)F)cc2)CC(c2nc(C3CC3)no2)C1` (single isomer, unassigned) [Example 7, {3-(3-Cyclopropyl-1,2,4-oxadiazol-5-yl)-5-[4-(trifluoromethoxy)phenyl]piperidin-1-yl}(3-hydroxyazetidin-1-yl)methanone], the pIC50 is 7.47.

In the case of `COCCc1noc(C2CC(c3ccc(OC(F)(F)F)cc3)CN(C(=O)N3CC(O)C3)C2)n1` (single isomer, unassigned) [Example 9, (3-Hydroxyazetidin-1-yl){3-[3-(2-methoxyethyl)-1,2,4-oxadiazol-5-yl]-5-[4-(trifluoromethoxy)-phenyl]piperidin-1-yl}methanone], the pIC50 is 7.55.
